What was measured:
[1] = test system: platelets (platelet rich plasma); test: Inhibition of platelet aggregation, thrombin receptor activating peptide (TRAP) as agonist; type: cell-based; conditions: TRAP 12 μM, human PRP, read-out: % Reduction in Aggregation TRAP (12 μM); for inhibition at 30 µM: compound 30 μM
Method: (§1) Platelet rich plasma (PRP) was obtained by drawing whole blood from normal human donors (not on any medication) into sodium citrate tubes (3.2%), and centrifuging at 160×g for about 10 minutes. Platelet poor plasma (PPP) was obtained by centrifuging the remainder of the sample after the platelets were removed at 800×g for about 10 minutes. The PRP was adjusted to a count of 280×10^9/L using a mixture of PRP and PPP. The platelets (200 μL) were incubated with the test compounds (25 μL) adjusted to various concentrations (5, 10, 20, 30, 50, and 100 μM) for about 30 minutes at room temperature (approximate final platelet count in the incubation mixture of 250×10^9/L). The samples were incubated for about 3 minutes at about 37° C., and then transferred to the mixing wells of a Chrono-log 4 channel aggregometer (Chrono-log Corp., Havertown, Pa.). After baselines were established, agonist (25 μL of 40 μM ADP (Sigma, St. Louis, Mo.) or 25 μL of 50 μg/mL and 10 μg/mL collagen (Helena Laboratories, Beaumont, Tex.) or 25 μL of 120 μM thrombin receptor activating peptide (TRAP) (Sigma)) was then added. Aggregation was monitored for 5 minutes at 37° C. with stirring (1000 rpm). The amplitude and slope of each tracing were calculated to determine the amount of aggregation. Control samples were performed using only solvent. The % reduction in aggregation was calculated for each sample compared to the proper solvent control.

[2] = test system: platelets (platelet rich plasma); test: Inhibition of platelet aggregation, collagen as agonist; type: cell-based; conditions: human PRP; for inhibition at 50 µM: compound 50 μM; for inhibition at 30 µM: compound 30 μM; for inhibition at 100 µM: compound 100 μM
Method: as §1

[3] = test system: platelets (platelet rich plasma); test: Inhibition of platelet aggregation, ADP as agonist; type: cell-based; conditions: ADP 4 μM, human PRP, read-out: % Reduction in Aggregation ADP (4 μM); for inhibition at 30 µM: compound 30 μM
Method: as §1

Human Thrombin = target: T1, Human Thrombin (Homo sapiens, UniProt P00734); test: Determination of Anti-Thrombin (Factor IIa) Activity; type: biochemical; conditions: competitive inhibition; substrate Pefachrome Thr; pH 8.3
T1 construct: Determination of Anti-Thrombin (Factor IIa) Activity; purchased Calbiochem
Method: The test compounds (40 μL) adjusted to various concentrations (0.25 to 100 μM) were incubated with Human Thrombin (Calbiochem) enzyme (5 nM) in 31 mM Tris buffer (pH 8.3) containing 81 mM sodium chloride and 0.63% bovine serum albumin (fraction V)(80 μL) at room temperature for about 30 minutes. 80 μL of Pefachrome® Thr (Pentapharm) was adjusted to various concentrations, from 62.5 μM to 1.25 mM. The activity was measured at about 37° C. by monitoring absorbance at 405 nm for about 15 minutes using a FLUOstar OPTIMA™. Control sample was the solvent alone. Each test compound was analyzed twice using 4 concentrations of compound plus control (in duplicate) with 5 concentrations of substrate (50, 100, 200, 300 and 500 μM). The specific activity (ΔA405/min/nM enzyme) was determined for each data point. The Ki for competitive inhibition was then determined for each test compound using the Enzyme Kinetics module of Sigmaplot 8.0 (SPSS).

Human FXa = target: T2, Human FXa (Homo sapiens, UniProt P00742); test: Determination of Anti-Factor Xa (Fxa) Activity; type: biochemical; conditions: competitive inhibition; substrate Pefachrome Xa; pH 7.5
T2 construct: Determination of Anti-Factor Xa (Fxa) Activity; purchased Calbiochem
Method: The test compounds (40 μL) adjusted to various concentrations (0.25 to 100 μM) were incubated with 5 nM Human FXa (Calbiochem, San Diego, Calif.) enzyme in 125 mM Tris [Tris(hydroxymethyl)aminomethane] buffer (pH 7.5) containing 375 mM sodium chloride and 0.25% polyethylene glycol (MW 8000) (80 μL) at room temperature for about 30 minutes. 80 μL of synthetic substrate Pefachrome® Xa (Pentapharm, Basel, Switzerland), adjusted to various concentrations from 125 μM to 1.25 mM, was added. The activity was measured at 37° C. by monitoring absorbance at 405 nm for 15 minutes using a FLUOstar OPTIMA™ (BMG Labtech GmbH, Offenburg, Germany) microplate reader. Control sample was the solvent alone. Each test compound was analyzed twice using 4 concentrations of compound plus control (in duplicate) with 5 concentrations of substrate (50, 100, 200, 300 and 500 μM). The specific activity (ΔA405/min/nM enzyme) was determined for each data point. The Ki for competitive inhibition was then determined for each test compound using the Enzyme Kinetics module of Sigmaplot 8.0 (SPSS Inc., Chicago, Ill.).

[4] = collagen 1 μg/mL, read-out: % Reduction in Aggregation Collagen (1 μg/mL)
[5] = collagen 5 μg/mL, read-out: % Reduction in Aggregation Collagen (5 μg/mL)

T2 sequence (P00742 235-488 limits assumed): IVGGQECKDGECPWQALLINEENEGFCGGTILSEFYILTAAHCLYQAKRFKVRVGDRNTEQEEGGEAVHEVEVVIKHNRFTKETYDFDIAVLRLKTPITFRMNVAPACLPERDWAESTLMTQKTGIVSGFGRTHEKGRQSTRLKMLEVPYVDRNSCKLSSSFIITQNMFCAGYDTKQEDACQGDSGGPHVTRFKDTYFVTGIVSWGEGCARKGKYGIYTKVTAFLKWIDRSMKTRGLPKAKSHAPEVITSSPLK
T2 sequence (P00742 41-179 partner limits assumed): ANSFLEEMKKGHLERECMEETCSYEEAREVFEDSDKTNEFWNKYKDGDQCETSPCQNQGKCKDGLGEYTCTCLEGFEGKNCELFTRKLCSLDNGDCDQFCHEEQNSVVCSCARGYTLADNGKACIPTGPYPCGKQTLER

Row | SMILES | Ki (Human Thrombin) [µM] | Ki (Human FXa) [µM] | further results
1 | Cc1ncc(CO)c(CNc2ccc(C(=N)N)cc2)c1OCc1ccc(C(=N)N)cc1 [Compound 3, 4-{[3-(4-Carbamimidoyl-benzyloxy)-5-hydroxymethyl-2-methyl-pyridin-4-ylmethyl]-amino}-benzamidine] |  |  | inhibition at 50 µM ([1]; compound 50 μM): 81%; inhibition at 50 µM [2, 4]: 20%; inhibition at 50 µM [2, 5]: 0%; inhibition at 50 µM ([3]; compound 50 μM): 27%
2 | Cc1ncc(CNc2ccc(-c3ccc(C(=N)N)cc3)cc2)c(CO)c1OCc1ccc(C(=N)N)cc1 [Compound 6, 4′-{[5-(4-Carbamimidoyl-benzyloxy)-4-hydroxymethyl-6-methyl-pyridin-3-ylmethyl]-amino}-biphenyl-4-carboxamidine] | 10.3 | 2.3 | inhibition at 30 µM [1]: 86%; inhibition at 30 µM [2, 4]: 100%; inhibition at 30 µM [2, 5]: 44%; inhibition at 30 µM [3]: 89%
3 | Cc1ncc(COc2ccc(C(=N)N)cc2)c(CO)c1OCc1ccc(C(=N)N)cc1 [Compound 15, 4-(5-(4-Carbamimidoyl-benzyloxy)-4-hydroxymethyl-6-methyl-pyridin-3-ylmethoxy)-benzamidine] | 1.65 | 11 | 
4 | Cc1ncc(COc2ccc(C(=N)N)cc2)c(C(F)F)c1OCc1ccc(C(=N)N)cc1 [Compound 21, 4-[4,4-Difluoromethyl-6-methyl-5-(4-carbamimidoyl-benzyloxy)-pyridin-3-ylmethoxy]-benzamidine] | 0.51 | 19 | 
5 | Cc1ncc(CNc2ccc(-c3ccc(C(=N)N)cc3)cc2)c(CNCCCCCC(=O)O)c1O [Compound 46, 6-({5-[(4′-Carbamimidoyl-biphenyl-4-ylamino)-methyl]-3-hydroxy-2-methyl-pyridin-4-ylmethyl}-amino)-hexanoic acid] |  |  | inhibition at 100 µM ([1]; compound 100 μM): 29%; inhibition at 100 µM [2, 4]: 35%; inhibition at 100 µM [2, 5]: 19%; inhibition at 100 µM ([3]; compound 100 μM): 46%
6 | Cc1ncc(CNc2ccc(C(=N)N)cc2)c(CNCCCCCC(=O)O)c1OCc1ccc(C(=N)N)cc1 [Compound 54, 6-({3-(4-Carbamimidoyl-benzyloxy)-5-[(4-carbamimidoyl-phenylamino)-methyl]-2-methyl-pyridin-4-ylmethyl}-amino)-hexanoic acid] |  |  | inhibition at 30 µM [1]: 53%; inhibition at 30 µM [2, 4]: 15%; inhibition at 30 µM [2, 5]: 13%; inhibition at 30 µM [3]: 23%
7 | Cc1ncc(CNc2ccc(-c3ccc(C(=N)N)cc3)cc2F)c(CO)c1OCc1ccc(C(=N)N)cc1 [Compound 63, 4′-{[5-(4-Carbamimidoyl-benzyloxy)-4-hydroxymethyl-6-methyl-pyridin-3-ylmethyl]-amino}-3′-fluoro-biphenyl-4-carboxamidine] |  |  | inhibition at 30 µM [1]: 94%; inhibition at 30 µM [2, 4]: 95%; inhibition at 30 µM [2, 5]: 41%; inhibition at 30 µM [3]: 95%
8 | Cc1ncc(COc2ccc(C(=N)N)cc2)c(C)c1OCc1cccc(C(=N)N)c1 [Compound 70, 4-[4,6-Dimethyl-5-(3-carbamimidoyl-benzyloxyl)-pyridin-3-ylmethoxy]-benzamidine] | 0.7 | 9 | 
9 | Cc1ncc(CNC(=O)c2ccc(C(=N)N)cc2)c(CO)c1OCc1ccc(C(=N)N)cc1 [Compound 73, 4-Carbamimidoyl-N-[5-(4-carbamimidoyl-benzyloxy)-4-hydroxymethyl-6-methyl-pyridin-3-ylmethyl]-benzamide] | 0.72 | 3.5 | 
10 | CCc1c(CNc2ccc(C(=N)N)cc2)cnc(C)c1OCc1cccc(C(=N)N)c1 [Compound 103, 3-{5-[(4-Amidino-phenylamino)-methyl]-4-ethyl-2-methyl-pyridin-3-yloxymethyl}-benzamidine] | 0.047 | 0.961 | 
11 | Cc1ncc(CNc2ccc(C(=N)N)cc2)c(CF)c1OCc1cccc(C(=N)N)c1 [Compound 108, 4-{[4-Fluoromethyl-5-(3-amidine-benzyloxy)-6-methyl-pyridin-3-ylmethyl]-amino}-benzamidine] |  | 0.378 | 
12 | Cc1ncc(CNc2ccc(C(=N)N)cc2)cc1OCc1cccc(C(=N)N)c1 [Compound 136, 4-((5-(3-amidinebenzyloxy)-6-methylpyridin-3-yl)methylamino)benzamidine] | 0.333 | 0.503 | 

More lines, main results first:

Row | Ki (Human Thrombin) [µM] | Ki (Human FXa) [µM] | SMILES | further results
13 | 0.039 | 0.412 | Cc1c(CNc2ccc(C(=N)N)cc2)cnc(CO)c1OCc1cccc(C(=N)N)c1 [Compound 138, 4-{[5-(3-Amidine-benzyloxy)-6-hydroxymethyl-4-methyl-pyridin-3-ylmethyl]-amino}-benzamidine] | 
14 | 0.017 | 0.423 | Cc1c(CNc2ccc(C(=N)N)cc2)cnc(CF)c1OCc1cccc(C(=N)N)c1 [Compound 140, 4-{[5-(3-Amidine-benzyloxy)-6-fluoro-methyl-4-methyl-pyridin-3-ylmethyl]-amino}-benzamidine] | 
15 | 0.186 | 0.589 | Cc1c(CNc2ccc(C(=N)N)cc2)cnc(C=O)c1OCc1cccc(C(=N)N)c1 [Compound 142, 4-{[5-(3-Amidine-benzyloxy)-6-formyl-4-methyl-pyridin-3-ylmethyl]-amino}-benzamidine] | 
16 | 0.009 | 0.473 | N=C(N)c1ccc(NCc2cnc(CF)c(OCc3cccc(C(=N)N)c3)c2CF)cc1 [Compound 148, 4-{[4,6-Bis-fluoromethyl-5-(3-amidine-benzyloxy)-pyridin-3-ylmethyl]-amino}-benzamidine] | 
17 | 0.012 | 0.665 | N=C(N)c1ccc(COc2c(CF)ncc(CNc3ccc(C(=N)N)cc3)c2CF)cc1 [Compound 153, 4-{5-[(4-Carbamimidoyl-phenylamino)-methyl]-2,4-bis-fluoromethyl-pyridin-3-yloxymethyl}-benzamidine] | 
18 | 0.041 | 0.38 | Cc1nc(C2CC2)c(CNc2ccc(C(=N)N)cc2)c(CO)c1OCc1cccc(C(=N)N)c1 [Compound 172, 3-{5-[(4-Carbamimidoyl-phenylamino)-methyl]-6-cyclopropyl-4-hydroxymethyl-2-methyl-pyridin-3-yloxymethyl}-benzamidine] | 
19 | 0.037 | 1.08 | Cc1nc(C2CC2)c(CNc2ccc(C(=N)N)cc2)c(CO)c1OCc1ccc(C(=N)N)cc1 [Compound 174, 4-{5-[(4-Carbamimidoyl-phenylamino)-methyl]-6-cyclopropyl-4-hydroxymethyl-2-methyl-pyridin-3-yloxymethyl}-benzamidine] | 

From patent US7812037B2, “Dual antiplatelet/anticoagulant pyridoxine analogs” (Medicure International, Inc., priority 2004, dated 2010)
